Data on three molecules can be found in patent US20170189445A1, “XENON ASSOCIATED WITH AN NMDA RECEPTOR ANTAGONIST FOR CONTROLLING TUMOR PROLIFERATION IN THE CENTRAL NERVOUS SYSTEM” (L'Air Liquide, Société Anonyme pour I'Etude et …, priority 2014, published 2017).

Assay [1] concerns glial cells of astrocyte type and/or precursors thereof. The assay can be described thus: Cell proliferation by tritiated thymidine accumulation in astrocyte-enriched cultures (FCS mitogens). More on the design: key to Reduction in proliferation: an absence of response is represented by a “−” sign, synonymous with non-efficacy with respect to cell proliferation; +: a favorable response, synonymous with inhibition of the proliferation of glial cells of astrocyte type; ++: a favorable response, synonymous with inhibition of the proliferation of glial cells of astrocyte type; +++: a favorable response, synonymous with inhibition of the proliferation of glial cells of astrocyte type; ++++=absence of proliferation. Format: cell-based, rat. The protocol: Cultures are prepared from total brain of embryos, taken from gestating Wistar female rats on day 15.5 of gestation. The method for producing the cultures enriched with astrocytes (cells immunopositive for glial fibrillary acidic protein or GFAP) comprises obtaining a homogeneous cell suspension of the entire embryonic anterior brain by mechanical dissociation, i.e. non-enzymatic dissociation, using Leibovitz L15 medium (Sigma Aldrich). […] The medium used is Minimum Essential Medium (MEM), containing 10% of fetal calf serum (FCS, Biowest) and 10% of horse serum (HS, Sigma Aldrich), 1 g/l of glucose, 2 mM of L-glutamine, 1 mM of sodium pyruvate, non-essential amino acids, and a penicillin/streptomycin cocktail. When confluence is reached (i.e. after 7-10 days of culture), the adherent cells (>90% of astrocytes) are placed in PBS, then detached by tapping the flasks. […] The astrocytes are then cultured in 48-well multiwell plates (Nunc). Approximately 30 000 cells are applied per culture well. The cells are placed in the presence of the same medium as previously, but with a serum supplementation, reduced to 2%. No change of culture medium is carried out throughout the culture period. The proliferation is triggered and maintained by the presence of FCS in the culture medium. The NMDA receptor blocker, memantine (RD Systems), is added to the cultures just before exposure to the xenon. Dibutyryl cyclic AMP (dbcAMP), a lipophilic form of cAMP used as a reference anti-proliferative molecule (Mourlevat et al., Mol Pharmacol, 2003), is added at the same time as the memantine. Once the pharmacological treatments have been carried out, the multiwell dish plates containing the cells in culture and the plate used to humidify the internal compartment of the chamber are placed on a metal base which receives the Plexiglas incubation chamber. The two parts (base and Plexiglas chamber) are butt-joined together by screwing. A gas mixture of interest comprising (% by volume): 20% of O2, 5% of CO2 and 75% of the gas tested is then injected into the incubation chamber, with open inlet and outlet valves, while at the same time controlling the output flow rate by means of a flow meter. The gases tested are nitrogen and xenon. The reference output flow rate, set for air at 10 liters/min, is corrected according to the density of the mixture used. When the CO2 measurement reaches 5% at the outlet, the injection of the gas mixture is stopped and the chamber is made totally airtight by closing the inlet and outlet valves. The exposure chamber is then placed in an enclosure at 37° C. throughout the experimental protocol. After the […] been broken by opening the inlet and outlet valves and unscrewing the chamber from its base, the cultures are placed in the presence of PBS containing 5 mM of glucose and incubated for 2 h with tritiated thymidine (Perkin, 70-90 Ci/mmol; 0.5 μCi/well) in order to analyze the cell proliferation according to a method previously described by Rousseau and colleagues (Mol Pharmacol, 2013). […] These cultures were maintained, as soon as they were placed in culture and up to D3 in vitro, in an atmosphere containing 75% of nitrogen (N2 75) or 75% of xenon (Xe 75), in the presence or absence of memantine (MEM), […] analog of cAMP, dibutyryl-cAMP, used as reference anti-proliferative molecule. At the end of the treatments, the cultures are recovered for a cell proliferation measurement, using tritiated thymidine incorporation as evaluation index. The results are expressed in % (±SEM, n=6) of the mean values of the cultures maintained under 75% of nitrogen (control condition).

The test system of assay [2] is glial cells of astrocyte type and/or precursors thereof in the presence of neuronal cells. The assay is described as follows: Cell proliferation by tritiated thymidine incorporation in neuron-glia mixed (mesencephalon) cultures. More on the design: key to Inhibition of proliferation: an absence of response is represented by a “−” sign, synonymous with non-efficacy with respect to cell proliferation; +: a favorable response, synonymous with inhibition of the proliferation of glial cells of astrocyte type; ++: a favorable response, synonymous with inhibition of the proliferation of glial cells of astrocyte type; +++: a favorable response, synonymous with inhibition of the proliferation of glial cells of astrocyte type; ++++=absence of proliferation. Format: cell-based, rat. On the procedure: Cultures are prepared from mesencephalon of rat embryos taken from female Wistar rats, on day 15.5 of gestation. The use of the mesencephalon cultures comprises obtaining a homogeneous cell suspension by mechanical dissociation, i.e. non-enzymatic dissociation, of the embryonic tissue, using Leibovitz L15 medium (Sigma Aldrich). Aliquots of this suspension are added to Nunc 48-well multiwell plates, which have been precoated with a thin layer of polyethyleneimine (1 mg/ml, borate buffer, pH 8.3) so as to enable adhesion of the neuronal cells (cf. Toulorge et al., Faseb J, 2011). The seeding density is between approximately 80 000 and 100 000 cells/culture well. The mesencephalon cultures are maintained in MEM culture medium, containing 1 g/l of glucose, 2 mM of L-glutamine, 1 mM of sodium pyruvate, non-essential amino acids and a penicillin/streptomycin cocktail. During the first week of culture, this medium also contains 10% of fetal calf serum (FCS, Biowest) and 10% of horse serum (HS, Sigma Aldrich), but from the second week, the concentrations of the two sera are reduced (Gao et al., J Neurosci, 2002). Up to the time when the effects of the gases of interest are evaluated, the cultures are placed in a conventional enclosure thermostatically controlled at 37° C., in which the CO2 is maintained at 5% by volume and wherein the atmosphere is saturated with water. The glial proliferation process occurs as soon as the cells are placed in culture. It is analyzed during the second week in vitro when the serum supplementation is reduced to 2% or in some cases to 0.1%. After reduction of the FCS and HS concentrations on D7, the NMDA receptor blocker, memantine, is added to the cultures before placing them under a controlled gaseous atmosphere. Once the pharmacological treatments have been carried out, the multiwell plates containing the cells in culture and the plate used for humidifying the internal compartment of the chamber are placed on a metal base which receives the Plexiglas incubation chamber. The two parts (base and Plexiglas chamber) are butt-joined together by screwing. A gas mixture of interest comprising (% by volume): 20% of O2, 5% of CO2 and 75% of gas tested is then injected into the incubation chamber, with open inlet and outlet valves, while at the same time controlling the output flow rate by means of a flow meter. The gases tested are nitrogen and xenon. The reference output flow rate, set for air at 10 liters/min, is corrected according to the density of the mixture used. When the CO2 measurement reaches 5% at the outlet, the injection of the gas mixture is stopped and the chamber is made totally airtight by closing the inlet and outlet valves. The exposure chamber is then placed in an enclosure at 37° C. for the 7 days of the experimental protocol. On D14, after the […] been broken by opening the inlet and outlet valves and unscrewing the incubation chamber from its base, the cultures are subjected to the tritiated-thymidine proliferation test according to the protocol described in example 1, using as a basis the technique described by Rousseau and colleagues (Mol. Pharmacol., 2013). […] Some experiments were also carried out by reducing the concentrations of the 2 types of serum to 0.1%, while maintaining the cells under a nitrogen-enriched or xenon-enriched atmosphere. The cultures are then recovered for a cell proliferation measurement using tritiated thymidine. […]

Consider `CC12CC3CC(C)(C1)CC(N)(C3)C2` [Memantine, memantine], for which the anti-proliferative effect is −39.3% in assay [1] (30 pM (so in the source), nitrogen-enriched atmosphere); −75.2% in assay [1] (30 pM (so in the source), xenon-enriched atmosphere); −42.5% in assay [1] (10 μM, xenon-enriched atmosphere, vs cultures under 75% nitrogen); “no anti-proliferative effect” in assay [1] (nitrogen-enriched atmosphere, up to 10 μM). For the same molecule, the Reduction in proliferation result in assay [1] (1 μM, 75% N2, D0-D3) is “−”; in assay [1] (1 μM, 75% Xe, D0-D3) it was “−”; in assay [1] (3 μM, 75% N2, D0-D3) it was “−”; in assay [1] (3 μM, 75% Xe, D0-D3) it was “−”; in assay [1] (10 μM, 75% N2, D0-D3), “−”; in assay [1] (10 μM, 75% Xe, D0-D3) it was “++”. Also, the Reduction in proliferation entry in assay [1] (30 μM, 75% N2, D0-D3) was “++”; in assay [1] (30 μM, 75% Xe, D0-D3) it was “+++”. Also, in assay [2] (10 μM, 75% N2, sera at 2%, D7-D14), the Inhibition of proliferation result is listed as “−”. Moreover, in assay [2] (memantine applied under nitrogen), the “impact on the proliferation” value is recorded as “no impact on the proliferation”.
On to `[Xe]` [Xe, xenon], for which the Reduction in proliferation result in assay [1] (75% Xe (20% O2 + 5% CO2), no drug, D0-D3 (3 days)) is on record as “−”. In addition, the “anti-proliferative effect” value in assay [1] (xenon replaces nitrogen (75 vol %), no drug) is “no significant anti-proliferative effect”. Also, the Inhibition of proliferation entry in assay [2] (75% Xe, sera at 0.1%, D7-D14) is given as “+++”; in assay [2] (75% Xe, sera at 2%, D7-D14 (7 days)), “−”. In assay [2] (xenon-enriched atmosphere, no memantine), the “impact on the proliferation” value is reported as “no impact on the proliferation”.
Take `CCCC(=O)Nc1ncnc2c1ncn2[C@@H]1O[C@@H]2COP(=O)(O)O[C@H]2[C@H]1OC(=O)CCC` [dbcAMP, Dibutyryl cyclic AMP]: the Reduction in proliferation result in assay [1] (1 mM, 75% N2, D0-D3) is recorded as “++”; in assay [1] (1 mM, 75% Xe, D0-D3), “++”. The “proliferation in the presence of serum mitogens” value in assay [1] (atmosphere containing 75 vol % of nitrogen) was “significantly reduced”.
